Publication PMC6009964, “Designing, synthesis and bioactivities of 4-[3-(4-hydroxyphenyl)-5-aryl-4,5-dihydro-pyrazol-1-yl]benzenesulfonamides” (Journal of Enzyme Inhibition and Medicinal Chemistry, 2016)
Read-outs that look alike come from different tables or passages of the source.

Experiments:
[1] = system: HSC-3 human oral squamous cell carcinoma cell line (tongue); experiment: Cytotoxicity assay (MTT), HSC-3; details: for CC50: Homo sapiens, HSC-3, 48 h, read-out: CC50 HSC-3; for SI (HSC-3): average CC50 of nonmalignant cells / CC50 towards HSC-3
[2] = system: Human oral squamous cell carcinoma cell lines (Ca9–22, HSC-2, HSC-3, HSC-4); experiment: Cytotoxicity assay (MTT), all four OSCC lines (mean, selectivity); details: for CC50: Homo sapiens; for TS (D/B): mean CC50 against normal cells / mean CC50 against cancer cells; for Mean SI: mean SI over four OSCC cell lines
[3] = Cytotoxicity assay (MTT), normal oral cells (mean); details: human, normal oral cells HGF, HPLF, HPC (mean of the three)
hCA XII = target: T1, hCA XII (Homo sapiens, UniProt O43570); experiment: Stopped-flow CO2 hydration carbonic anhydrase assay, hCA XII; assay type: biochemical; details: for Ki: stopped-flow CO2 hydration, 15 min preincubation, pH 7.5; for hCA XII/hCA IX (selectivity ratio of Ki): times more selective towards hCA XII than hCA IX; for times more potent than compound 1 towards hCA XII: ratio of Ki versus compound 1
T1 construct: made in house

[4] = system: Ca9–22 human oral squamous cell carcinoma cell line (gingiva); experiment: Cytotoxicity assay (MTT), Ca9-22; details: for TS (C/A): CC50 HGF / CC50 Ca9–22 (same tissue origin, gingiva); for CC50: Homo sapiens, Ca9-22, 48 h, read-out: CC50 Ca9–22 (A); for SI (Ca9–22): average CC50 of nonmalignant cells / CC50 towards Ca9–22
hCA IX = target: T2, hCA IX (Homo sapiens, UniProt Q16790); experiment: Stopped-flow CO2 hydration carbonic anhydrase assay, hCA IX; assay type: biochemical; details: for Ki: stopped-flow CO2 hydration, 15 min preincubation, pH 7.5; for times more potent than compound 1 towards hCA IX: ratio of Ki versus compound 1
T2 construct: made in house

[5] = system: HSC-2 human oral squamous cell carcinoma cell line (tongue); experiment: Cytotoxicity assay (MTT), HSC-2; details: for CC50: Homo sapiens, HSC-2, 48 h, read-out: CC50 HSC-2; for SI (HSC-2): average CC50 of nonmalignant cells / CC50 towards HSC-2
[6] = system: HSC-4 human oral squamous cell carcinoma cell line (tongue); experiment: Cytotoxicity assay (MTT), HSC-4; details: for CC50: Homo sapiens, HSC-4, 48 h, read-out: CC50 HSC-4; for SI (HSC-4): average CC50 of nonmalignant cells / CC50 towards HSC-4
[7] = Cytotoxicity assay (MTT), HPLF; details: human, normal periodontal ligament fibroblasts (HPLF)
[8] = Cytotoxicity assay (MTT), HPC; details: human, normal pulp cells (HPC)
[9] = Cytotoxicity assay (MTT), HGF; details: human, normal gingival fibroblasts (HGF)
[10] = read-out: CC50 Mean (B), human oral squamous cell carcinoma cell lines

T1 sequence (O43570 25-354): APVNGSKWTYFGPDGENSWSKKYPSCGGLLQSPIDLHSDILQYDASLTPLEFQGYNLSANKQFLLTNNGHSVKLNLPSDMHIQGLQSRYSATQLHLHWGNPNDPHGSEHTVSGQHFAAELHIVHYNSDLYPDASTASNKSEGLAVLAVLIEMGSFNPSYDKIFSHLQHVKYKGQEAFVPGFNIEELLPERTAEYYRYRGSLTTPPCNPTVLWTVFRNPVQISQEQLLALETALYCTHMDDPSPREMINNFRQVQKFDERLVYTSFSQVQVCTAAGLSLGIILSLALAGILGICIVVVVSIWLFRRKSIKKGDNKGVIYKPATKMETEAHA

Structure (SMILES)	CC50 [1] [µM]	SI (HSC-3) [1]	CC50 [2, 10] [µM]	TS (D/B) [2]	Mean SI [2]	CC50 at 48 h [3] [µM]	Ki (hCA XII) [µM]	hCA XII/hCA IX (selectivity ratio of Ki) (hCA XII)	TS (C/A) [4]	CC50 [4] [µM]	SI (Ca9–22) [4]	Ki (hCA IX) [µM]	CC50 [5] [µM]	SI (HSC-2) [5]	CC50 [6] [µM]	SI (HSC-4) [6]	CC50 at 48 h [7] [µM]	CC50 at 48 h [8] [µM]	CC50 at 48 h [9] [µM]	other results
COc1ccc(C2CC(c3ccc(O)cc3)=NN2c2ccc(S(N)(=O)=O)cc2)cc1 (centres unmarked) [Compound 3, 4-[3-(4-Hydroxyphenyl)-5-(4-methoxyphenyl)-4,5-dihydro-pyrazol-1-yl]benzenesulfonamide]	71	1.5	77	1.4	1.4	105	0.0336	2.8	2.0	53.3	2.0	0.0931	95.3	1.1	88.3	1.2	39.3	167	108	times increased inhibition potential versus compound 2 towards hCA XII (hCA XII; ratio of Ki versus compound 2): 2.8; times increased inhibition potential versus compound 2 towards hCA IX (hCA IX; ratio of Ki versus compound 2): 1.1
O=c1[nH]cc(F)c(=O)[nH]1 [Compound 5-FU, 5-Fluorouracil, reference compound]	16	>62.5	17.8	>56.2	>62.7	> 1000			>34.5	29	>34.5		13	>76.9	13	>76.9	> 1000	> 1000	> 1000	CC50 ([2]; read-out: CC50 range towards cancer cell lines): 13 to 29 µM
NS(=O)(=O)c1ccc(N2N=C(c3ccc(O)cc3)CC2c2ccc(Br)cc2)cc1 (centres unmarked) [Compound 7, 4-[5-(4-Bromophenyl)-3-(4-hydroxyphenyl)-4,5-dihydro-pyrazol-1-yl]benzenesulfonamide]	70.3	1.1	68.2	1.2	1.2	78.6	0.0076	8.7	0.9	55.7	1.4	0.0662	85	0.9	61.7	1.3	34.3	149	52	
NS(=O)(=O)c1ccc(N2N=C(c3ccc(O)cc3)CC2c2ccc([N+](=O)[O-])cc2)cc1 (centres unmarked) [Compound 8, 4-[3-(4-Hydroxyphenyl)-5-(4-nitrophenyl)-4,5-dihydro-pyrazol-1-yl]benzenesulfonamide]	63.3	1.0	60.6	1.1	1.2	66.2	0.0075	8.5	1.1	39.3	1.7	0.0637	76	0.9	63.7	1.0	30	127	42	times more potent than compound 1 towards hCA XII (hCA XII): 9.2; times more potent than compound 1 towards hCA IX (hCA IX): 14.5
Cc1ccc(C2CC(c3ccc(O)cc3)=NN2c2ccc(S(N)(=O)=O)cc2)cc1 (centres unmarked) [Compound 2, 4-[3-(4-Hydroxyphenyl)-5-p-tolyl-4,5-dihydro-pyrazol-1-yl]benzenesulfonamide]	67.3	1.4	72.5	1.3	1.4	97.2	0.095		1.7	57	1.7	0.1	95.3	1.0	70.3	1.4	42.3	150	99.3	
NS(=O)(=O)c1ccc(N2N=C(c3ccc(O)cc3)CC2c2ccc(Cl)cc2Cl)cc1 (centres unmarked) [Compound 5, 4-[5-(2,4-Dichlorophenyl)-3-(4-hydroxyphenyl)-4,5-dihydro-pyrazol-1-yl]benzenesulfonamide]	76	1.0	64.2	1.2	1.3	76.2	0.0092	9.3	1.4	44.3	1.7	0.0857	82.3	0.9	54	1.4	34.7	131	63	times more potent than compound 1 towards hCA XII (hCA XII): 7.5; times more potent than compound 1 towards hCA IX (hCA IX): 10.8
NS(=O)(=O)c1ccc(N2N=C(c3ccc(O)cc3)CC2c2ccccc2)cc1 (centres unmarked) [Compound 1, 4-[3-(4-Hydroxyphenyl)-5-phenyl-4,5-dihydro-pyrazol-1-yl]benzenesulfonamide]	81	1.5	85.3	1.4	1.4	118	0.0689	13.4	1.6	82	1.4	0.923	94.7	1.2	83.7	1.4	59.7	161	133	
NS(=O)(=O)c1ccc(N2N=C(c3ccc(O)cc3)CC2c2ccc(F)cc2)cc1 (centres unmarked) [Compound 6, 4-[5-(4-Fluorophenyl)-3-(4-hydroxyphenyl)-4,5-dihydro-pyrazol-1-yl]benzenesulfonamide]	78	1.1	71.7	1.2	1.2	84.2	0.0086	9.8	1.0	61.7	1.4	0.0841	84.7	1.0	62.3	1.4	33	155	64.7	
